Data from patent publication US8097585B2, “Methods of treating inflammation by administration of heme oxygenase-1 and products of heme degradation” (priority 2002, dated 2012).
Structures can show the parent of a compound that is named as a salt.

Assays:
IL-1β = test: Real time RT-PCR of graft muscularis after SITx, IL-1β; type: in vivo, LEW rats; conditions: BV 50 mmol/kg i.p. donor and recipient; 4 hours; versus saline-treated graft
Description: (§1) Small Intestinal Transplantation. Orthotopic small intestinal transplantation (SITx) was performed in syngeneic Lewis rats. SITx with caval drainage was performed using a previously described procedure (Murase et al., in Handbook of Animal Models in Transplantation Research, Cramer et al., Eds. CRC Press, Boca Raton, Fla., pp. 203-213 (1994)). […] The graft was perfused via the aortic segment with 5 ml chilled Ringer's lactate solution, and the intestinal lumen was irrigated with 20 ml of cold saline solution containing 0.5% neomycin-sulfate (Sigma, St. Louis, Mo.). […]
(§2) SYBR green real time RT-PCR. The effects of administration of biliverdin on transplant-induced pro-inflammatory and anti-inflammatory gene expression were assessed in muscularis extracts by RT-PCR Biliverdin ([…], i.p.) was administered to both the donor and recipient three hours preoperatively. […] Equal aliquots (5 μg) of total RNA from each sample were quantified by spectrophotometry (wavelength […]) and aliquoted at a concentration of 40 ng/μl. Peak mRNA expression was quantified in duplicate by SYBR Green two-step, real-time RT-PCR. […] Real-time PCR data were plotted as the ΔRn fluorescence signal versus the cycle number. […] Quantification of mRNA expression was normalized to GAPDH and calculated relative to control using the comparative CT method (Schmittgen et al., J. Biochem. Biophys. Methods 46(1-2):69-8, 2000). […]

TNF-α = test: Real time RT-PCR of graft muscularis after SITx, TNF-α; type: in vivo, LEW rats; conditions: BV treatment, 4 hours
Description: as §1, §2

NF-κB = test: EMSA of nuclear extracts, NF-κB DNA binding; type: cell-based; conditions: Jurkat T cells, PMA plus ionomycin, 100 μM biliverdin
Description: Nuclear protein extraction and electrophoretic mobility shift assay (EMSA). Jurkat T cells were cultured in 10% FCS supplemented RPMI 1640 with 50 nM phorbol myristyl acetate (PMA) and 2 μM ionomycin (both reagents from ICN Biomedicals) in the presence or absence of 100 μM biliverdin. Following 0, 2, and 4 hrs of stimulation, cells (30×10^6 cells for each group at each time points) were collected, washed twice with PBS, and pelleted. Nuclear and cytoplasmic extracts were prepared according to a modified Shapiro's method (Shapiro et al., DNA 7(1):47-55, 1988). Protein concentrations were determined by the Bradford assay. The following oligonucleotides (Invitrogen, Calsbad, Calif.) were used for EMSA:
NF-κB, (coding) 5′-[…]-3′ (SEQ ID NO:7),
(non-coding) 5′-[…]-[…]-3′ (SEQ ID NO:8).
Oligonucleotides were radioactively labeled with [^32P] ATP. The EMSA reactions were assembled as previously described (Usheva et al., Proc. Natl. Acad. Sci. USA 93(24):13571-6, 1996). Digital images from the EMSA radiographs were obtained using an image scanner.

C=CC1=C(C)/C(=C/C2=NC(=C\c3[nH]c(/C=C4\NC(=O)C(C)=C4C=C)c(C)c3CCC(=O)O)/C(CCC(=O)O)=C2C)NC1=O [biliverdin, biliverdin dihydrochloride]
reduction of IL-1b mRNA expression (IL-1β): 30% | upregulation of TNF-α mRNA caused by transplantation (TNF-α): did not significantly change | DNA binding of NF-κB (NF-κB): inhibited DNA binding
